Converted amounts (≈) assume the structure as drawn. The source made the active and inactive calls. The rule behind the calls is not given here.
Legend:
Caspase-3 (Homo sapiens) [1] = target: T1, Caspase-3 (Homo sapiens) (UniProt P42574); assay: Inhibition of CPP32 peptidase activity at 50 nM
T1 sequence (whole entry): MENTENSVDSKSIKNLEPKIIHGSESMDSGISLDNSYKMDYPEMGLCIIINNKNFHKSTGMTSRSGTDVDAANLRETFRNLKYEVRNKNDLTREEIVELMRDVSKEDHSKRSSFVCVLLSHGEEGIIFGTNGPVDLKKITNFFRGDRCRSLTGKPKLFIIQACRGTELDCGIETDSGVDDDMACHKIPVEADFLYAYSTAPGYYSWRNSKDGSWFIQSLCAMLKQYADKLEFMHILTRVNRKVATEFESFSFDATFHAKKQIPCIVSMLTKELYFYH

Bos taurus = species: Bos taurus; assay: Inhibition of bovine brain calcineurin phosphatase activity at 5 ug/mL
Caspase-3 (Homo sapiens) [2] = target: T1, Caspase-3 (Homo sapiens); assay: Inhibition of CPP32 peptidase activity at 5 ug/mL
A549 = assay: Cytotoxicity against human A549 cells; format: functional, cell-based
[3] = Inhibition of bovine brain calcineurin phosphatase activity; parameters: species or system Bos taurus
P388 = assay: Cytotoxicity against mouse P388 cells; format: functional, cell-based

## CC(C)[C@H](NC(=O)[C@H](CCC(=O)O)NC(=O)[C@@H](N)CC(=O)O)C(=O)N[C@H](C=O)CC(=O)O
Caspase-3 (Homo sapiens) [1]
  inhibition: 90%

## O=C1C(Br)=CC2(C=C1Br)CCNC1=C2C2=NCCc3c[nH]c(c32)C1=O
Bos taurus
  Activity: inactive
Caspase-3 (Homo sapiens) [2]
  Activity: inactive

## Cn1cc2c3c1C(=O)C1=C(C3=NCC2)C2(C=C(Br)C(=O)C(Br)=C2)CCN1 [DISCORHABDIN]
A549
  IC50: 0.41 µg/mL (≈ 0.859 µM)
[3]
  IC50: 0.55 µg/mL (≈ 1.15 µM)
P388
  IC50: 0.025 µg/mL (≈ 0.0524 µM)
